Test results as given in PubChem BioAssay AID248 (DTP/NCI, 2004).
Values joined by “and” are separate entries in the source; they are usually repeats but may differ in a detail not shown here. Identical values can stand only once. Inconclusive results and toxic doses are left out. No stated cut-off is given here; in the data, active means T/C of 150% or more; inactive means T/C below 125%.

Tested on: L1210 leukemia ip in BDF1 mice, survival T/C
Experiment: NCI In Vivo Anticancer Drug Screen. Data for tumor model L1210 Leukemia (intraperitoneal) in B6D2F1 (BDF1) mice
Details: endpoint: mean survival time, higher = longer survival
Outline: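 In this screen, tumor-bearing mice given compound are compared to those given vehicle, and their survival values are reported as a treated-to-control quotient.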

[1] = dose: 100.0 mg/kg/injection, schedule: Q01DX009 (ip), vehicle: Klucel (hydroxypropylcellulose) (HPC)
[2] = dose: 100.0 mg/kg/injection, schedule: Q04DX003 (ip), vehicle: Klucel (hydroxypropylcellulose) (HPC)
[3] = dose: 200.0 mg/kg/injection, schedule: Q01DX009 (ip), vehicle: Klucel (hydroxypropylcellulose) (HPC)
[4] = dose: 200.0 mg/kg/injection, schedule: Q04DX003 (ip), vehicle: Klucel (hydroxypropylcellulose) (HPC)
[5] = dose: 400.0 mg/kg/injection, schedule: Q01DX009 (ip), vehicle: Klucel (hydroxypropylcellulose) (HPC)
[6] = dose: 400.0 mg/kg/injection, schedule: Q04DX003 (ip), vehicle: Klucel (hydroxypropylcellulose) (HPC)
[7] = dose: 100.0 mg/kg/injection, schedule: Q01DX001 (ip), vehicle: Klucel (hydroxypropylcellulose) (HPC)
[8] = dose: 200.0 mg/kg/injection, schedule: Q01DX001 (ip), vehicle: Klucel (hydroxypropylcellulose) (HPC)
[9] = dose: 400.0 mg/kg/injection, schedule: Q01DX001 (ip), vehicle: Klucel (hydroxypropylcellulose) (HPC)
[10] = dose: 100.0 mg/kg/injection, schedule: Q01DX001 (ip), vehicle: carboxymethylcellulose (CMC)
[11] = dose: 200.0 mg/kg/injection, schedule: Q01DX001 (ip), vehicle: carboxymethylcellulose (CMC)
[12] = dose: 400.0 mg/kg/injection, schedule: Q01DX001 (ip), vehicle: carboxymethylcellulose (CMC)
[13] = dose: 100.0 mg/kg/injection, schedule: Q01DX009 (ip), vehicle: saline
[14] = dose: 100.0 mg/kg/injection, schedule: Q04DX003 (ip), vehicle: saline
[15] = dose: 200.0 mg/kg/injection, schedule: Q01DX009 (ip), vehicle: saline
[16] = dose: 200.0 mg/kg/injection, schedule: Q04DX003 (ip), vehicle: saline
[17] = dose: 400.0 mg/kg/injection, schedule: Q01DX009 (ip), vehicle: saline
[18] = dose: 100.0 mg/kg/injection, schedule: Q01DX001 (ip), vehicle: saline
[19] = dose: 200.0 mg/kg/injection, schedule: Q01DX001 (ip), vehicle: saline
[20] = dose: 100.0 mg/kg/injection, schedule: Q01DX009 (ip), vehicle: saline with Tween-80
[21] = dose: 200.0 mg/kg/injection, schedule: Q01DX009 (ip), vehicle: saline with Tween-80
[22] = dose: 400.0 mg/kg/injection, schedule: Q01DX009 (ip), vehicle: saline with Tween-80
[23] = dose: 100.0 mg/kg/injection, schedule: Q04DX003 (ip), vehicle: saline with Tween-80
[24] = dose: 200.0 mg/kg/injection, schedule: Q04DX003 (ip), vehicle: saline with Tween-80
[25] = dose: 400.0 mg/kg/injection, schedule: Q04DX003 (ip), vehicle: saline with Tween-80

Measured: T/C

C#CCOCC1CN(c2ccccc2)C(=O)O1 (stereo not given)
inactive: [1] 100 % of control | [2] 101 % of control | [3] 100 % of control | [4] 92 % of control | [5] 91 % of control | [6] 103 % of control

COc1cc(CNC(=O)NCCCl)cc(OC)c1OC
inactive: [7] 96 % of control | [1] 94 % of control | [8] 88 % of control | [3] 95 % of control | [9] 98 % of control | [5] 90 % of control

CC1(C)N=C(N)N=C(N)N1c1ccc(OCC(=O)Nc2ccc(S(=O)(=O)F)cc2)cc1
inactive: dose: 0.8 mg/kg/injection, schedule: Q01DX009 (ip), vehicle: saline 101 % of control | dose: 4.0 mg/kg/injection, schedule: Q01DX009 (ip), vehicle: saline 103 % of control | dose: 20.0 mg/kg/injection, schedule: Q01DX009 (ip), vehicle: saline 112 % of control

COC1OC(COS(=O)(=O)c2ccc(C)cc2)C(N(C)C(C)=O)C1OS(=O)(=O)c1ccc(C)cc1 (stereo not given)
inactive: [10] 96 % of control | [11] 91 % of control | [12] 91 % of control

C[n+]1cccc(O)c1
inactive: dose: 67.0 mg/kg/injection, schedule: Q04DX003 (ip), vehicle: saline 105 % of control | [13] 90 % of control | [14] 107 % of control | dose: 150.0 mg/kg/injection, schedule: Q04DX003 (ip), vehicle: saline 105 % of control | [15] 93 % of control | [16] 124 % of control | [17] 92 % of control | dose: 400.0 mg/kg/injection, schedule: Q04DX003 (ip), vehicle: saline 97 % of control

O=C(O)c1ccc(Br)s1
inactive: [18] 97 % of control | [19] 99 % of control

OCC1CCCN2CCCCC12 (stereo not given)
inactive: [14] 98 % of control | [16] 90 % of control

c1ccc2c(N=Nc3cccc4ccccc34)cccc2c1
inactive: [10] 97 % of control | [11] 97 % of control | [12] 93 % of control

CCOC(=O)NCC(CCN(C)CC)(c1cccc2ccccc12)C(C)C (stereo not given)
inactive: dose: 12.5 mg/kg/injection, schedule: Q01DX009 (ip), vehicle: saline with Tween-80 93 % of control | dose: 12.5 mg/kg/injection, schedule: Q04DX003 (ip), vehicle: saline with Tween-80 93 % of control | dose: 25.0 mg/kg/injection, schedule: Q01DX009 (ip), vehicle: saline with Tween-80 98 % of control | dose: 25.0 mg/kg/injection, schedule: Q04DX003 (ip), vehicle: saline with Tween-80 98 % of control | dose: 50.0 mg/kg/injection, schedule: Q04DX003 (ip), vehicle: saline with Tween-80 93 % of control

Cc1ccccc1OS(=O)(=O)c1cccc([N+](=O)[O-])c1
inactive: [20] 93 % of control | [21] 92 % of control | [22] 90 % of control

COc1ccc2c(ccc3ccc4ccccc4c32)c1
inactive: [7] 105 % of control | [8] 102 % of control | [9] 100 % of control

CC(=O)NC1CCCCCCC1
inactive: dose: 100.0 mg/kg/injection, schedule: Q01DX005 (ip), vehicle: saline 103 % of control | [13] 108 % of control | dose: 100.0 mg/kg/injection, schedule: Q04DX002 (ip), vehicle: saline 100 % of control | dose: 200.0 mg/kg/injection, schedule: Q01DX005 (ip), vehicle: saline 109 % of control | [15] 102 % of control | dose: 200.0 mg/kg/injection, schedule: Q04DX002 (ip), vehicle: saline 110 % of control | dose: 400.0 mg/kg/injection, schedule: Q01DX005 (ip), vehicle: saline 109 % of control | [17] 115 % of control | dose: 400.0 mg/kg/injection, schedule: Q04DX002 (ip), vehicle: saline 100 % of control

Cc1ccc(C(=O)/C=C/c2ccc(N(C)C)cc2)cc1
inactive: [20] 90 % of control | [21] 93 % of control | [22] 97 % of control

O=C(Nc1cccc(C2=NCCN2)c1)c1ccc2ccc(C(=O)Nc3cccc(C4=NCCN4)c3)cc2c1
inactive: dose: 15.0 mg/kg/injection, schedule: Q01DX Z (ip), vehicle: carboxymethylcellulose (CMC) 111 % of control | dose: 30.0 mg/kg/injection, schedule: Q01DX Z (ip), vehicle: carboxymethylcellulose (CMC) 102 % of control | dose: 60.0 mg/kg/injection, schedule: Q01DX Z (ip), vehicle: carboxymethylcellulose (CMC) 106 % of control | dose: 120.0 mg/kg/injection, schedule: Q01DX Z (ip), vehicle: carboxymethylcellulose (CMC) 113 % of control | dose: 125.0 mg/kg/injection, schedule: Q01DX Z (ip), vehicle: water 118 % of control

CCCCCCCC/C=C\CCCCCCCCOC(=O)Cc1ccc(N(CCCl)CCCl)cc1
inactive: dose: 100.0 mg/kg/injection, schedule: Q01DX005 (ip), vehicle: Klucel (hydroxypropylcellulose) (HPC) 119 % of control | dose: 100.0 mg/kg/injection, schedule: Q04DX002 (ip), vehicle: Klucel (hydroxypropylcellulose) (HPC) 121 % of control | dose: 200.0 mg/kg/injection, schedule: Q01DX005 (ip), vehicle: Klucel (hydroxypropylcellulose) (HPC) 115 % of control | dose: 200.0 mg/kg/injection, schedule: Q04DX002 (ip), vehicle: Klucel (hydroxypropylcellulose) (HPC) 117 % of control | dose: 400.0 mg/kg/injection, schedule: Q04DX002 (ip), vehicle: Klucel (hydroxypropylcellulose) (HPC) 121 % of control

COc1ccc(C[n+]2cccc(CNC(=O)COc3ccc(Cl)c(Cl)c3)c2)cc1
inactive: dose: 25.0 mg/kg/injection, schedule: Q04DX003 (ip), vehicle: Klucel (hydroxypropylcellulose) (HPC) 98 % of control | dose: 50.0 mg/kg/injection, schedule: Q04DX003 (ip), vehicle: Klucel (hydroxypropylcellulose) (HPC) 106 % of control | [2] 107 % of control and 108 % of control

c1ccc(CNCC(NCc2ccccc2)c2ccccc2)cc1 (stereo not given)
inactive: [2] 91 % of control | [23] 93 % of control | [4] 93 % of control | [24] 97 % of control | [6] 98 % of control | [25] 88 % of control

CCOC(=O)c1ccccc1NC(OCC)C(=O)c1ccccc1 (stereo not given) (tested in a mixture with another compound)
inactive: [18] 96 % of control | [19] 97 % of control | dose: 400.0 mg/kg/injection, schedule: Q01DX001 (ip), vehicle: saline 103 % of control

O=C1C(Br)C2CCC1C2C(=O)O (stereo not given)
inactive: [20] 103 % of control | [23] 87 % of control | [21] 89 % of control and 96 % of control | [24] 92 % of control | [22] 100 % of control and 94 % of control | [25] 101 % of control

O=[N+]([O-])c1c(Cl)cccc1-c1c[nH]cc1Cl
inactive: dose: 100.0 mg/kg/injection, schedule: Q01DX001 (ip), vehicle: other 92 % of control | dose: 200.0 mg/kg/injection, schedule: Q01DX001 (ip), vehicle: other 90 % of control | dose: 400.0 mg/kg/injection, schedule: Q01DX001 (ip), vehicle: other 97 % of control

CCC(Cl)COP(=O)(OC(c1ccc(Cl)c(Cl)c1)P(=O)(OCC(Cl)CC)OCC(Cl)CC)C(CC)CCl (stereo not given)
inactive: dose: 100.0 mg/kg/injection, schedule: Q01DX001 (ip), vehicle: saline with Tween-80 104 % of control | dose: 200.0 mg/kg/injection, schedule: Q01DX001 (ip), vehicle: saline with Tween-80 95 % of control | dose: 400.0 mg/kg/injection, schedule: Q01DX001 (ip), vehicle: saline with Tween-80 101 % of control
